US10857230B2, “Co-therapy comprising a small molecule CSF-1R inhibitor and an agonistic antibody that specifically binds CD40 for the treatment of cancer” (Janssen Biotech, Inc., priority 2017, dated 2020)

Test system: MC38 murine colon carcinoma cells
Experiment: MC38 Tumor Size Assay (Example 1)
Format: in vivo, C57BL/6 mice
Conditions: for Median TTE: 61-day study
Protocol: The mice were housed on irradiated Enrich-o'Cobs™ bedding in static microisolators on a 12-hour light cycle at 20-22° C. (68-72° F.) and 40-60% humidity.
MC38 murine colon carcinoma cells were grown in Dulbecco's Modified Eagle Medium (DMEM) supplemented with 10% fetal bovine serum and 2 mM glutamine, 100 units/mL penicillin G sodium, 100 μg/mL streptomycin sulfate, and 25 μg/mL gentamicin.
The MC38 colon cells used for implantation were harvested during log phase growth and re-suspended in cold PBS. Mice were anesthetized with isoflurane prior to implantation. Each mouse was injected subcutaneously in the right flank with 1×10^6 tumor cells (0.1 mL cell suspension) and tumors were monitored as their volumes approached the target range of 350 to 500 mm^3. […] Tumors were measured with calipers twice weekly in two dimensions. Tumor size was calculated using the formula:
where w=width and l=length, in mm, of a tumor. Tumor weight was estimated with the assumption that 1 mg is equivalent to 1 mm^3 of tumor volume.
The compound of formula (I) was stored at room temperature and antibody stock solutions were stored at 4° C. upon receipt.
Each week of dosing, the compound of formula (I) was dissolved in 0.5% HPMC to yield a 1.0 mg/mL dosing solution. The dosing solution was stored at 4° C., protected from light. The rat IgG2a isotype and anti-CSF1R dosing solutions were prepared fresh each day by diluting aliquots of the stock solutions with PBS to yield 1.0 mg/mL dosing solutions. The dosing solutions were stored at 4° C., protected from light. The anti-mCD40 dosing solution was prepared fresh each day by diluting an aliquot of the stock solution with PBS to yield a 0.1 mg/mL dosing solution. The dosing solution was stored at 4° C., protected from light.
On Day 1 of the study, fourteen groups of C57BL/6 mice (n=10) began dosing according to the following protocol.
The vehicle (0.5% HPMC) and the compound of formula (I) were administered orally (p.o.). The rat IgG2a isotype control, anti-mCD40, and anti-CSF1R were administered intraperitoneally (i.p.). Rat IgG2a(2A3) was administered at […]. The compound of formula (I) and anti-CSF1R were administered at 10 mg/kg, and anti-mCD40 was administered at 1 mg/kg. The dosing volume for all animals was 10 mL/kg (0.2 mL per 20-g mouse) and was adjusted for body weight.
Tumors were measured using calipers twice per week. […] TGI (tumor growth inhibition) analysis was performed on Day 15. The MTV (n), the median tumor volume for the number of animals, n, on Day 15, was determined for each group. Percent tumor growth inhibition (% TGI) was defined as the difference between the MTV of the designated control group (Group 1) and the MTV of the drug-treated group, expressed as a percentage of the MTV of the control group: […]
The data set for TGI analysis included all animals in a group, except those that died due to treatment-related or non-treatment related causes
Animals were monitored individually for tumor growth until Day 61. The study protocol specified a tumor growth delay assay based on the median time-to-endpoint (TTE) in a treated group versus the control group. Each animal was marked for tumor progression (TP) when its tumor reached the 1500 mm^3 volume endpoint. The TTE for each mouse was calculated with the following equation: […]
where b is the intercept and m is the slope of the line obtained by linear regression of a log-transformed tumor growth data set. The data set comprised the first observation that exceeded the study endpoint volume and the three consecutive observations that immediately preceded the attainment of the endpoint volume. […] In instances in which the log-transformed calculated TTE preceded the day prior to reaching endpoint or exceeded the day of reaching tumor volume endpoint, a linear interpolation was performed to approximate TTE.

[1] = Groups 3-7: all dosing from Day 1 (antibodies i.p. Days 1, 5, 9, formula (I) p.o. bid×14), formula (I) and anti-CSF1R 10 mg/kg, anti-mCD40 1 mg/kg, vs rat IgG2a control Group 1
[2] = Groups 9, 11, 13, 14: formula (I) 10 mg/kg p.o. bid×14 beginning Day 4 or anti-CSF1R 10 mg/kg i.p. Days 4, 8, 12, in combinations anti-mCD40 1 mg/kg i.p. Days 1, 5, 9, vs rat IgG2a control Group 1
[3] = number of animals of n=10, Groups 3-7: all dosing from Day 1 (antibodies i.p. Days 1, 5, 9, formula (I) p.o. bid×14), formula (I) and anti-CSF1R 10 mg/kg, anti-mCD40 1 mg/kg
[4] = number of animals of n=10, Groups 9, 11, 13, 14: formula (I) 10 mg/kg p.o. bid×14 beginning Day 4 or anti-CSF1R 10 mg/kg i.p. Days 4, 8, 12, in combinations anti-mCD40 1 mg/kg i.p. Days 1, 5, 9

CC1(C)CC=C(c2nc(C3CC(C)(C)OC(C)(C)C3)ccc2NC(=O)c2nc(C#N)c[nH]2)CC1 [compound of formula (I), 4-cyano-N-(2-(4,4-dimethylcyclohex-1-en-1-yl)-6-(2,2,6,6-tetramethyltetrahydro-2H-pyran-4-yl)pyridin-3-yl)-1H-imidazole-2-carboxamide]
% TGI (Day 15, vs rat IgG2a control Group 1, Groups 3-7: all dosing from Day 1 (antibodies i.p. Days 1, 5, 9, formula (I) p.o. bid×14), formula (I) and anti-CSF1R 10 mg/kg, anti-mCD40 1 mg/kg): 21%
% TGI (Day 15, vs rat IgG2a control Group 1, Groups 9, 11, 13, 14: formula (I) 10 mg/kg p.o. bid×14 beginning Day 4 or anti-CSF1R 10 mg/kg i.p. Days 4, 8, 12, in combinations anti-mCD40 1 mg/kg i.p. Days 1, 5, 9): −24%
Median TTE (Groups 3-7: all dosing from Day 1 (antibodies i.p. Days 1, 5, 9, formula (I) p.o. bid×14), formula (I) and anti-CSF1R 10 mg/kg, anti-mCD40 1 mg/kg, 1500 mm^3 endpoint): 17.5 days
% TGD [1]: 17%
T − C [1]: 2.5 days
Median TTE (Groups 9, 11, 13, 14: formula (I) 10 mg/kg p.o. bid×14 beginning Day 4 or anti-CSF1R 10 mg/kg i.p. Days 4, 8, 12, in combinations anti-mCD40 1 mg/kg i.p. Days 1, 5, 9, 1500 mm^3 endpoint): 11.4 days
% TGD [2]: −24%
T − C [2]: -3.6 days
Regression CR [3]: 0
Regression PR [3]: 0
Regression CR [4]: 0
Regression PR [4]: 0
Regression TFS (tumor-free survivors Day 61, of n=10, Groups 3-7: all dosing from Day 1 (antibodies i.p. Days 1, 5, 9, formula (I) p.o. bid×14), formula (I) and anti-CSF1R 10 mg/kg, anti-mCD40 1 mg/kg): 0
Regression TFS (tumor-free survivors Day 61, of n=10, Groups 9, 11, 13, 14: formula (I) 10 mg/kg p.o. bid×14 beginning Day 4 or anti-CSF1R 10 mg/kg i.p. Days 4, 8, 12, in combinations anti-mCD40 1 mg/kg i.p. Days 1, 5, 9): 0
